In brackets after ≈: the same amount, converted by molar mass.
Key:
S. aureus ATCC 25923 [1] = system: S. aureus ATCC 25923
Experimental: was used as a negative control.
(§1) Experiments were performed in triplicate.
The experiment was performed in triplicate.

chymotrypsin = details: 32 μg/mL in H2O, protease 100:1 (w:w), 37 °C, 4 h, 8 h and 12 h, UPLC-LRMS
Experimental: (§2) Protease stability of massatide A
(§3) We selected TEV protease, Endoproteinase AspN, Endoproteinase GluC, trypsin, and chymotrypsin to evaluate the stability of massatide A. The protease digestion assay was conducted as follows: (i) Stock solution of massatide A (3.2 mg/mL in DMSO) was diluted in H2O with final concentration of 32 μg/mL, (ii) each protease was added with 100:1 (w:w) ratio and incubated under corresponding temperature, i.e., 37 °C for TEV protease, trypsin, and chymotrypsin and 30 °C for Endoproteinase AspN and […]
(§4) Endoproteinase GluC. […]
(§5) 1 μ L samples were taken and diluted with water for UPLC -LRMS analysis. […]

trypsin = details: 32 μg/mL in H2O, protease 100:1 (w:w), 37 °C, 4 h, 8 h and 12 h, UPLC-LRMS
Experimental: as §2, §3, §4

[2] = system: TEV protease, Endoproteinase AspN, Endoproteinase GluC; details: many other proteases (TEV protease 37 °C, Endoproteinase AspN and GluC 30 °C), 32 μg/mL, 100:1 (w:w), 4 h, 8 h, 12 h, UPLC-LRMS
Experimental: as §2, §3, §4

[3] = Thermal stability of massatide A
Experimental: Thermal stability of massatide A
A solution of Massatide A (3.2 mg/mL) was prepared in 1.5 mL Eppendorf tube. These
tubes were then incubated at 50 °C and 70 °C in a dry bath for 72 hours. After incubation,
as §5

[4] = Mammalian cytotoxicity, CCK-8 assay; assay type: cell-based; details: human
Experimental: Bioactivity assay of the crude extract
as §2
Thermal stability of massatide A […]
and 1% penicillin -streptomycin. […]
and CO 2-controllable incubator with 5% CO 2. All the cell experiments were performed […]
Cell viability was determined by the CCK -8 assay. HeLa and Hek -293T cells were […]
µg/ml. At the end of the fixed incubation period (24 h), cells were washed with PBS to remove excess compound. We added 100 µl fresh medium and 10 µl CCK-8 reagent.
After 2 h incubation at 37°C, absorbance at 450 nm was recorded using a microplate reader. All experiments were performed in triplicate (n=3 independent experiments).
Growth kinetics of S. aureus
Massatide A or B was prepared in a 96-well plate at the concentration of 8×MIC, 4×MIC, 2×MIC, 1×MIC and 0.5×MIC , respectively. The MHB medium with no compound was used as a control. Then, the overnight culture of S. aureus ATCC 25923 cells was added to the medium at 1:1,000. The plate was incubated with shaking in SpectraMax iD3 (MOLECULAR DEVICES) at 30 ℃. OD600 was measured every 30 min for 36 hours. To analyze the lysis, 1mL of S. aureus ATCC 25923 culture (OD600 1.0) was treated with massatide A or vancomycin (10×MIC) for 24h. An untreated sample was used as a negative control.
(§6) Time-dependent killing assay
(§7) An overnight culture of S. aureus ATCC 25923 cells was diluted at 1:10,000 in MHB medium and incubated at 37 ℃, 200 rpm for 2 hours to reach the early exponential.
(§8) Then, massatide A or vancomycin was added to the culture at the concentration of 10×MIC. Bacteria were still cultivated at 37 ℃, 200 rpm. Culture with no antibiotics was used as a negative control. 10 μL aliquots were removed at intervals, centrifuged, and resuspended in 1 ml PBS. Serially diluted (10-fold) suspensions were plated on MHB agar and incubated at 37 ℃ overnight for counting of colony-forming units.
as §1
Sequential culturing of S. aureus ATCC 25923 was performed in the presence of a subinhibitory concentration of massatide A to observe whether the resistance developed. […]

S. aureus ATCC 25923 [5] = assay: Time-dependent killing assay; assay type: cell-based, Staphylococcus aureus; details: for log(CFU/mL) / CFU/mL: time-killing assay
Experimental: as §6, §7, §8
Experiments were performed in triplicate. […]

C/C=C1\NC(=O)C(N(C)C)C(C)SC[C@@H](C(=O)N[C@H](CC)C(=O)N[C@H](C(=O)N[C@@H](C)C(=O)N[C@H](C)C(=O)N[C@@H](Cc2ccccc2)C(=O)N[C@@H](C)C(=O)NC2C(=O)NCC(=O)N[C@@H](Cc3ccc(O)cc3)C(=O)N[C@@H](Cc3ccccc3)C(=O)N[C@H](C)C(=O)N/C=C\SC2C)C(C)C)NC(=O)[C@@H]2CCCN2C(=O)[C@H](C(C)C)NC1=O (some centres unmarked) [Massatide A (1), massatide A]
MIC to S. aureus after serial passaging (S. aureus ATCC 25923 [1]; 25 days of serial passaging in subinhibitory concentrations, triplicate): 4 µg/mL (≈ 2.45 µM)
change in MIC during serial passaging (S. aureus ATCC 25923 [1]; subsequent 19 days after day 6): No significant change in MIC
protease stability (chymotrypsin): resistant
protease stability (trypsin): resistant
protease stability [2]: resistant
stability under high temperatures ([3]; 3.2 mg/mL, 50 °C and 70 °C, dry bath, 72 hours, UPLC-LRMS): highly stable
changes in retention time or m/z after incubation ([3]; 72 h incubation under 70 ℃, 3.2 mg/mL, UPLC-LRMS): No changes
changes in bioactivity after incubation ([3]; time-course activity analysis, incubation at 50 ℃ and 70 ℃ up to 72 h): no obvious changes
IC50 at 24 h [4]: 136 µg/mL (≈ 83.4 µM)
time-dependent killing, mode of killing (S. aureus ATCC 25923 [5]; S. aureus, early exponential phase, 10×MIC, 37 °C, c.f.u. counting, triplicate): bactericidal
log(CFU/mL) (S. aureus ATCC 25923 [5]; time 0 h, log of mean of 3 replicates): 6.553 log(CFU/mL)
CFU/mL (S. aureus ATCC 25923 [5]; time 0 h, mean of 3 replicates): 3576667 CFU/mL
CFU/mL (S. aureus ATCC 25923 [5]; time 0 h, replicate 1): 2840000 CFU/mL
log(CFU/mL) (S. aureus ATCC 25923 [5]; time 0 h, replicate 1): 6.453 log(CFU/mL)
CFU/mL (S. aureus ATCC 25923 [5]; time 0 h, replicate 2): 4020000 CFU/mL
log(CFU/mL) (S. aureus ATCC 25923 [5]; time 0 h, replicate 2): 6.604 log(CFU/mL)
CFU/mL (S. aureus ATCC 25923 [5]; time 0 h, replicate 3): 3870000 CFU/mL
log(CFU/mL) (S. aureus ATCC 25923 [5]; time 0 h, replicate 3): 6.588 log(CFU/mL)
log(CFU/mL) (S. aureus ATCC 25923 [5]; time 1 h, log of mean of 3 replicates): 4.699 log(CFU/mL)
CFU/mL (S. aureus ATCC 25923 [5]; time 1 h, mean of 3 replicates): 50000 CFU/mL
CFU/mL (S. aureus ATCC 25923 [5]; time 1 h, replicate 1): 70000 CFU/mL
log(CFU/mL) (S. aureus ATCC 25923 [5]; time 1 h, replicate 1): 4.8451 log(CFU/mL)
CFU/mL (S. aureus ATCC 25923 [5]; time 1 h, replicate 2): 50000 CFU/mL
log(CFU/mL) (S. aureus ATCC 25923 [5]; time 1 h, replicate 2): 4.699 log(CFU/mL)
CFU/mL (S. aureus ATCC 25923 [5]; time 1 h, replicate 3): 30000 CFU/mL
log(CFU/mL) (S. aureus ATCC 25923 [5]; time 1 h, replicate 3): 4.477 log(CFU/mL)
log(CFU/mL) (S. aureus ATCC 25923 [5]; time 3 h, log of mean of 3 replicates): 4.176 log(CFU/mL)
CFU/mL (S. aureus ATCC 25923 [5]; time 3 h, mean of 3 replicates): 15000 CFU/mL
CFU/mL (S. aureus ATCC 25923 [5]; time 3 h, replicate 1): 10000 CFU/mL
log(CFU/mL) (S. aureus ATCC 25923 [5]; time 3 h, replicate 1): 4 log(CFU/mL)
CFU/mL (S. aureus ATCC 25923 [5]; time 3 h, replicate 2): 20000 CFU/mL
log(CFU/mL) (S. aureus ATCC 25923 [5]; time 3 h, replicate 2): 4.301 log(CFU/mL)
CFU/mL (S. aureus ATCC 25923 [5]; time 3 h, replicate 3): 15000 CFU/mL
log(CFU/mL) (S. aureus ATCC 25923 [5]; time 3 h, replicate 3): 4.176 log(CFU/mL)
log(CFU/mL) (S. aureus ATCC 25923 [5]; time 7 h, log of mean of 3 replicates): 3.921 log(CFU/mL)
CFU/mL (S. aureus ATCC 25923 [5]; time 7 h, mean of 3 replicates): 8333.33 CFU/mL
CFU/mL (S. aureus ATCC 25923 [5]; time 7 h, replicate 1): 5000 CFU/mL
log(CFU/mL) (S. aureus ATCC 25923 [5]; time 7 h, replicate 1): 3.699 log(CFU/mL)
CFU/mL (S. aureus ATCC 25923 [5]; time 7 h, replicate 2): 10000 CFU/mL
log(CFU/mL) (S. aureus ATCC 25923 [5]; time 7 h, replicate 2): 4 log(CFU/mL)
CFU/mL (S. aureus ATCC 25923 [5]; time 7 h, replicate 3): 10000 CFU/mL
log(CFU/mL) (S. aureus ATCC 25923 [5]; time 7 h, replicate 3): 4 log(CFU/mL)
log(CFU/mL) (S. aureus ATCC 25923 [5]; time 26 h, log of mean of 3 replicates): 2.049 log(CFU/mL)
CFU/mL (S. aureus ATCC 25923 [5]; time 26 h, mean of 3 replicates): 112 CFU/mL
CFU/mL (S. aureus ATCC 25923 [5]; time 26 h, replicate 1): 70 CFU/mL
log(CFU/mL) (S. aureus ATCC 25923 [5]; time 26 h, replicate 1): 1.8451 log(CFU/mL)
CFU/mL (S. aureus ATCC 25923 [5]; time 26 h, replicate 2): 120 CFU/mL
log(CFU/mL) (S. aureus ATCC 25923 [5]; time 26 h, replicate 2): 2.079 log(CFU/mL)
CFU/mL (S. aureus ATCC 25923 [5]; time 26 h, replicate 3): 146 CFU/mL
log(CFU/mL) (S. aureus ATCC 25923 [5]; time 26 h, replicate 3): 2.164 log(CFU/mL)
